Assay results: patent US10238641B2, “Materials and methods for diagnosis, prevention and/or treatment of stress disorders and conditions associated with A-beta peptide aggregation” (The United States of America as represented by the …, priority 2008, dated 2019)

Columns and labels:
[1] = tested on: rat cortical cells exposed to Aβ; assay: Aβ toxicity assay, double calcein-AM and PI staining; format: cell-based; settings: 5 μM Aβ + 10 μM cotinine, 24 h; Aβ alone 63%
Procedure: Primary cortical embryonic rat neurons were incubated with 5 μM Aβ in the presence or absence of various concentrations cotinine for […] as described (Echeverria et al. (2005)). Cell viability was assessed using the MTT assay (Sigma). As an alternative approach cell viability after exposure to Aβ and cotinine was assessed using the vital dye calcein-AM (green fluorescence) to stain live cells and propidium iodide to stain dead cells. MTT values were normalized to control values considered 100%.
In the double calcein-AM and Propidium iodide (PI) staining, PI binds to nucleic acid and is commonly used for identifying dead cells, since it is impermeable to the membranes of viable cells. Calcein-AM is converted to calcein by live cells, binds to the cellular calcium, and stains the cells by emitting a green fluorescence. […] After incubation cells were washed with PBS and the number of calcein-stained (green) and nuclei stained with PI (red) were analyzed by fluorescence microscopy. More than 600 cells per condition were analyzed in several 20× focal planes and recorded.
To investigate the effect of cotinine on Aβ neurotoxicity, rat cortical cells were grown in conditions that permitted us to obtain a neuron-enriched culture (around 95% neuron and 5% glial cells) for 7-10 days. […] After 24 h, cell survival was assessed by using MTT and PI and calcein-AM cell viability assays.

nAChRs = format: cell-based, rat
[2] = tested on: JNK1/2 phosphorylated (pJNK) at Thr183 and Thr185; assay: BDNF-induced pJNK in primary cortical neurons, Western blot; format: cell-based; settings: BDNF 100 ng/ml plus cotinine 10 μM, 1 h
Procedure: After 7 days in vitro, cortical neurons were treated with BDNF (100 ng/ml) alone or BDNF plus cotinine (10 μM) for 1 h. After treatments, cells were lysed and whole cell extracts were analyzed for the active forms of JNK and ERKs, pJNK and pERK1/2 by Western blot.

[3] = tested on: sensorimotor abilities in mice; assay: Rotarod test; format: in vivo; settings: two weeks of cotinine 1 mg/kg and 5 mg/kg
Procedure: At the end of the behavioral testing for FC, mice treated for two weeks with vehicle, cotinine 1 mg/kg and 5 mg/kg were tested in the rotarod as follows. The rotarod test was performed in an apparatus consisting of a 3 cm in diameter rod that was started at 4 rpm, accelerating up to 40 rpm for 5 min. Mice were tested for the time spent on the rod during each trial for a total of four trails per day. Testing during each trial was finished when the mouse fell off the rod and onto a spring-cushioned lever. The results are expressed as latency to fall in seconds (time spent on the rod) with 8 mice/group/treatment.
To discard a confounding effect of cotinine on learning due to changes in motor coordination and fatigue, we tested mice in the rotarod test after 2 weeks of treatment with vehicle or cotinine at the doses indicated in the figure below.

transgenic Tg6799 mice = assay: Circular platform test of reference memory; format: in vivo; settings: cotinine 2.5 mg/kg via gavage for two months
Procedure: Mice of 2.5 months of age were treated or not with cotinine 2.5 mg/kg via gavage for two months and after tested in the circular platform test. In this test the number of errors to escape a 69 cm diameter circular platform containing 16 holes along its perimeter was determined in a single daily trial (300 s maximum) over 8 days of testing. Only one hole leads to an escape box, which remains the same for any given animal. To control for olfactory cures, the escape hole was relocated after each animal's trial and the maze cleaned with a dilute vinegar solution. Tg, transgenic Tg6799 mice, NT, control wild type littermate mice. N=11 mice by group.

Aβ = Aβ (Homo sapiens, UniProt P05067); assay: Binding of cotinine to Aβ in vitro
Sequence of Aβ (P05067 672-713 limits assumed): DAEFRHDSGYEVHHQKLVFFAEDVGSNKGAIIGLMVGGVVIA

[4] = in vivo; cited from earlier work

In the case of `CN1C(=O)CC[C@H]1c1cccnc1` [cotinine], the “cell survival, % of vehicle-treated control cells (PI and calcein-AM)” value [1] is reported as 83%, the “neuroprotective actions in presence of nAChR antagonists alpha-Bungarotoxin or mecamylamine” value (nAChRs) is reported as “not affected” and the “levels of active JNK1/2 (pJNK) induced by BDNF” value [2] is reported as “decreased the levels of the active forms of JNK1/2”. The “sensorimotor abilities, latency to fall (rotarod)” value [3] was “did not affect sensorimotor abilities”, the “reference memory in the circular platform” value (transgenic Tg6799 mice) was “prevents the loss of reference memory” and the “binding to Aβ” value (Aβ) was “high affinity”. The half-life [4] was 10 to 24 h.
